Where “and” joins values, the source holds several entries; their conditions need not be identical. Equal entries are not always repeated.
Assay: xn = mol fraction of the nth substance listed
Conditions: 101 kPa, Liquid, Pycnometric method

NC=O [formamide] + OCCO
mass density [kg/m3]
Conditions	293.15 K	298.15 K	303.15 K	308.15 K	313.15 K	318.15 K
x1 = 0.0612	1114.13	1110.54	1106.94	1103.38	1099.81	1096.21
x1 = 0.1204	1114.54	1110.93	1107.31	1103.66	1100.06	1096.44
x1 = 0.1859	1115.04	1111.39	1107.74	1104.07	1100.42	1096.73
x1 = 0.2524	1115.55	1111.84	1108.13	1104.47	1100.77	1097.09
x1 = 0.3302	1116.11	1112.36	1108.66	1104.92	1101.18	1097.46
x1 = 0.3926	1116.61	1112.86	1109.1	1105.36	1101.62	1097.88
x1 = 0.4517	1117.2	1113.44	1109.64	1105.85	1102.08	1098.29
x1 = 0.5102	1117.85	1114.01	1110.17	1106.38	1102.55	1098.74
x1 = 0.5643	1118.48	1114.66	1110.81	1106.95	1103.13	1099.29
x1 = 0.6101	1119.18	1115.31	1111.46	1107.6	1103.72	1099.89
x1 = 0.6596	1120.09	1116.22	1112.36	1108.46	1104.59	1100.7
x1 = 0.7454	1122.11	1118.19	1114.23	1110.28	1106.35	1102.42
x1 = 0.8195	1124.35	1120.37	1116.38	1112.38	1108.42	1104.46
x1 = 0.8883	1127.02	1122.99	1119	1115.01	1110.98	1106.96
x1 = 0.9491	1130.03	1125.99	1121.95	1117.89	1113.86	1109.79
x1 = 1	1133	1129	1125	1121	1117	1113

NC=O [formamide] + CCO
mass density [kg/m3]
Conditions	293.15 K	298.15 K	303.15 K	308.15 K	313.15 K	318.15 K
x1 = 0.0698	807.47	803.3	799.14	794.94	790.75	786.59
x1 = 0.1412	826.72	822.6	818.49	814.41	810.28	806.17
x1 = 0.2032	844.13	840.06	835.99	831.94	827.87	823.84
x1 = 0.268	862.91	858.91	854.91	850.86	846.85	842.82
x1 = 0.3234	879.65	875.69	871.68	867.71	863.74	859.75
x1 = 0.3874	899.52	895.58	891.65	887.7	883.75	879.8
x1 = 0.4365	915.29	911.35	907.45	903.54	899.61	895.7
x1 = 0.4962	935.06	931.19	927.32	923.4	919.52	915.62
x1 = 0.5423	950.83	946.93	943.06	939.2	935.3	931.42
x1 = 0.5958	969.63	965.8	961.95	958.11	954.29	950.42
x1 = 0.6456	987.65	983.82	979.98	976.18	972.35	968.54
x1 = 0.708	1010.93	1007.05	1003.21	999.36	995.49	991.62
x1 = 0.7748	1036.9	1033.01	1029.13	1025.26	1021.35	1017.44
x1 = 0.8532	1068.57	1064.68	1060.75	1056.82	1052.93	1049.03
x1 = 0.9282	1100.66	1096.71	1092.76	1088.83	1084.87	1080.95
x1 = 1	1133	1129	1125	1121	1117	1113

CCO [ethanol] + NC=O
x2 = 0
Conditions	mass density [kg/m3]
293.15 K	789.46
298.15 K	785.2
303.15 K	780.75
308.15 K	776.42
313.15 K	771.81
318.15 K	767.38

OCCO [1,2-ethanediol] + NC=O
x2 = 0
Conditions	mass density [kg/m3]
293.15 K	1113.57
303.15 K	1106.51
313.15 K	1099.45

NC=O [formamide] + CC(O)CO
mass density [kg/m3]
Conditions	293.15 K	298.15 K	303.15 K	308.15 K	313.15 K	318.15 K
x1 = 0.0567	1038.29	1034.56	1030.82	1027.12	1023.41	1019.67
x1 = 0.1191	1040.52	1036.78	1033.03	1029.25	1025.52	1021.77
x1 = 0.1881	1043.47	1039.69	1035.91	1032.11	1028.33	1024.51
x1 = 0.2649	1047.35	1043.5	1039.65	1035.85	1032.01	1028.19
x1 = 0.3409	1051.67	1047.79	1043.96	1040.09	1036.22	1032.37
x1 = 0.3904	1054.79	1050.91	1047.02	1043.15	1039.28	1035.44
x1 = 0.4478	1058.92	1055.02	1051.08	1047.15	1043.24	1039.31
x1 = 0.4936	1062.42	1058.49	1054.56	1050.68	1046.76	1042.86
x1 = 0.5578	1068.01	1064.07	1060.1	1056.12	1052.18	1048.22
x1 = 0.6262	1074.52	1070.55	1066.6	1062.64	1058.66	1054.73
x1 = 0.6838	1080.96	1076.95	1072.95	1068.91	1064.9	1060.87
x1 = 0.7544	1089.83	1085.77	1081.67	1077.58	1073.51	1069.44
x1 = 0.8295	1100.75	1096.63	1092.5	1088.36	1084.26	1080.16
x1 = 0.8818	1109.7	1105.53	1101.4	1097.27	1093.1	1088.94
x1 = 0.9392	1120.57	1116.44	1112.31	1108.16	1104.04	1099.88
x1 = 1	1133	1129	1125	1121	1117	1113

NC=O [formamide] + CCCO
mass density
Conditions	293.15 K	298.15 K	303.15 K	308.15 K	313.15 K	318.15 K
x1 = 0.0557	814.02 kg/m3	810.06 kg/m3	806.09 kg/m3	802.16 kg/m3	798.22 kg/m3	794.25 kg/m3
x1 = 0.1172	826.05 kg/m3	822.13 kg/m3	818.2 kg/m3	814.24 kg/m3	810.33 kg/m3	806.4 kg/m3
x1 = 0.1854	840.26 kg/m3	836.35 kg/m3	832.44 kg/m3	828.51 kg/m3	824.6 kg/m3	820.65 kg/m3
x1 = 0.2615	857.42 kg/m3	853.48 kg/m3	849.54 kg/m3	845.65 kg/m3	841.72 kg/m3	837.81 kg/m3
x1 = 0.3469	878.23 kg/m3	874.3 kg/m3	870.42 kg/m3	866.5 kg/m3	862.58 kg/m3	858.68 kg/m3
x1 = 0.3912	889.89 kg/m3	885.98 kg/m3	882.06 kg/m3	878.16 kg/m3	874.26 kg/m3	870.36 kg/m3
x1 = 0.4434	904.36 kg/m3	900.47 kg/m3	896.54 kg/m3	892.62 kg/m3	888.72 kg/m3	884.8 kg/m3
x1 = 0.4986	920.67 kg/m3	916.75 kg/m3	912.83 kg/m3	908.96 kg/m3	905.05 kg/m3	901.16 kg/m3
x1 = 0.5534	937.91 kg/m3	934.03 kg/m3	930.12 kg/m3	926.2 kg/m3	922.32 kg/m3	918.42 kg/m3
x1 = 0.6216	961.03 kg/m3	957.12 kg/m3	953.23 kg/m3	949.33 kg/m3	945.41 kg/m3	941.54 kg/m3
x1 = 0.68	982.32 kg/m3	978.44 kg/m3	974.57 kg/m3	970.66 kg/m3	966.78 kg/m3	962.88 kg/m3
x1 = 0.7535	1011.59 kg/m3	1007.72 kg/m3	1003.81 kg/m3	999.91 kg/m3	996.03 kg/m3	992.15 kg/m3
x1 = 0.827	1043.7 kg/m3	1039.83 kg/m3	1035.95 kg/m3	1032.06 kg/m3	1028.21 kg/m3	1024.36 kg/m3
x1 = 0.8832	1070.44 kg/m3	1066.54 kg/m3	1062.68 kg/m3	1058.82 kg/m3	1054.92 kg/m3	1051.03 kg/m3
x1 = 0.9328	1095.56 kg/m3	1091.65 kg/m3	1087.74 kg/m3	1083.81 kg/m3	1079.91 kg/m3	1075.97 kg/m3
x1 = 1	–	1133 kg/m3 and 1129 kg/m3	1125 kg/m3	1121 kg/m3	1117 kg/m3	1113 kg/m3

CCCO [propan-1-ol] + NC=O
x2 = 0
Conditions	mass density [kg/m3]
293.15 K	803.71
298.15 K	799.74
303.15 K	795.77
308.15 K	791.8
313.15 K	787.83
318.15 K	783.86

CC(O)CO (centres undefined) [1,2-propanediol] + NC=O
x2 = 0
Conditions	mass density [kg/m3]
293.15 K	1036.38
298.15 K	1032.76
303.15 K	1029.14
308.15 K	1025.52
313.15 K	1021.9
318.15 K	1018.28

Reference: the NIST ThermoML archive (doi:10.1016/j.jct.2006.07.021)
